Molecular target: T1, renin (Homo sapiens, UniProt P00797)
T1 construct: This test measures the formation of angiotensin I in human plasma; from tissue; host or cells: human plasma
T1 sequence (P00797 67-406): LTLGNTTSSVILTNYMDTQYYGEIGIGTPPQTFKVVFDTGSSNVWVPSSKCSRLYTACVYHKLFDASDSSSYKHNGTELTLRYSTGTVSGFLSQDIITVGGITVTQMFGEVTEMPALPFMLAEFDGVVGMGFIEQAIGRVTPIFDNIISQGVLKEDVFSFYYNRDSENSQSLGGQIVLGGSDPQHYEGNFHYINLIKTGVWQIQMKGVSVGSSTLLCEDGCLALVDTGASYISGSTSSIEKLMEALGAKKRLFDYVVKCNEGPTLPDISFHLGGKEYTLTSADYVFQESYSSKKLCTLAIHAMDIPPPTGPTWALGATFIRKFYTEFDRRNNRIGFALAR
Test: in vitro test of Nussberger et al.: formation of angiotensin I in human plasma, determined by radio-immunoassay
Format: biochemical
Details: concentration of inhibitor which reduces the formation of angiotensin I in human plasma by 50%
Procedure: The effect of renin inhibitors is detected inter alia experimentally by means of in vitro tests where the reduction in the formation of angiotensin I is measured in various systems (human plasma, purified human renin together with synthetic or natural renin substrate). The following in vitro test of Nussberger et al. (1987) J. Cardiovascular Pharmacol., Vol. 9, pp. 39-44, is used, inter alia. This test measures the formation of angiotensin I in human plasma. The amount of angiotensin I formed is determined in a subsequent radio-immunoassay. The effect of inhibitors on the formation of angiotensin I is tested in this system by adding various concentrations of these substances. The IC50 is defined as the concentration of the particular inhibitor which reduces the formation of angiotensin I by 50%. The compounds of the present invention show inhibitory effects in the in vitro systems at minimal concentrations of about 10^−6 to about 10^−10 mol/l.

Row | SMILES | IC50
1 | COCCCCc1cc(CC(CC(N)C(O)CC(C(=O)NCC2CCOCC2)C(C)C)C(C)C)cc(C)n1 (centres unmarked) [Example 32JJJ] | 2.6 nM
2 | COCCCCc1cc(CC(CC(N)C(O)CC(C(=O)NCC2C3COCC23)C(C)C)C(C)C)cnc1OC (centres unmarked) [Example 36BBBB] | 4.8 nM
3 | COCCCCc1cc(CC(CC(N)C(O)CC(C(=O)NC2C3COCC32)C(C)C)C(C)C)cnc1OC (centres unmarked) [Example 36DDDD] | 3.1 nM

Other lines, results leading:

Row | IC50 | SMILES
4 | 2.9 nM | COCCCCc1cc(CC(CC(N)C(O)CC(C(=O)NCC2CC23CCOCC3)C(C)C)C(C)C)cnc1OC (centres unmarked) [Example 36HHHH]
5 | 3.5 nM | COCCCCc1cc(CC(CC(N)C(O)CC(C(=O)NCC2CC23CCOCC3)C(C)C)C(C)C)cnc1OC (centres unmarked) [Example 36IIII]

Source: patent US8071651B2, “5-amino-4-hydroxy-7-(imidazo [1,2-A] pyridin-6-ylmethyl)-8-methyl-nonamide derivatives and related compounds as renin inhibitors for the treatment of hypertension” (Novartis AG, priority 2005, dated 2011)
